Data taken from ChEMBL document CHEMBL5331051, “Cationic, amphipathic small molecules based on a triazine-piperazine-triazine scaffold as a new class of antimicrobial agents” (Eur J Med Chem, 2022).
Activity calls are given as the source filed them. No cut-off for these calls is given here.

What was measured:
[1] = test system: Pseudomonas aeruginosa; assay: Additive antibacterial activity against multidrug-resistant Pseudomonas aeruginosa CCARM 2095 strain assessed as fractional inhibitory concentration in presence of ciprofloxacin by checkerboard assay; assay type: functional
[2] = test system: Cell membrane; assay: Induction of cell membrane depolarization in Staphylococcus aureus assessed as fluorescence intensity at 2 to 16 times MIC by DiSC3(5) dye based fluorescence assay; assay type: subcellular
[3] = test system: Pseudomonas aeruginosa; assay: Additive antibacterial activity against multidrug-resistant Pseudomonas aeruginosa CCARM 2095 strain assessed as bacterial growth inhibition in presence of chloramphenicol by checkerboard assay; assay type: functional
[4] = test system: Pseudomonas aeruginosa; assay: Additive antibacterial activity against multidrug-resistant Pseudomonas aeruginosa CCARM 2095 strain assessed as chloramphenicol MIC by checkerboard assay; assay type: functional
[5] = test system: Pseudomonas aeruginosa; assay: Additive antibacterial activity against multidrug-resistant Pseudomonas aeruginosa CCARM 2095 strain assessed as fractional inhibitory concentration index in presence of ciprofloxacin by checkerboard assay; assay type: functional
[6] = test system: Staphylococcus aureus; assay: Additive antibacterial activity against methicillin-resistant Staphylococcus aureus CCARM 3089 strain assessed as ciprofloxacin MIC by checkerboard assay; assay type: functional
[7] = test system: Lipopolysaccharide (LPS); assay: Binding affinity to Escherichia coli O111:B4 lipopolysaccharide assessed as suppression of FTIC labeled LPS binding to mouse RAW264.7 cells at 20 ug/ml pretreated with LPS followed by compound addition by flow cytometer assay (reference value: 67.4%); assay type: cell-based; settings: dose 20.0 µg/ml
[8] = test system: Pseudomonas aeruginosa; assay: Additive antibacterial activity against multidrug-resistant Pseudomonas aeruginosa CCARM 2095 strain assessed as ciprofloxacin MIC by checkerboard assay; assay type: functional
[9] = test system: Pseudomonas aeruginosa; assay: Additive antibacterial activity against multidrug-resistant Pseudomonas aeruginosa CCARM 2095 strain assessed as oxacillin fractional inhibitory concentration by checkerboard assay; assay type: functional
[10] = test system: Pseudomonas aeruginosa; assay: Additive antibacterial activity against multidrug-resistant Pseudomonas aeruginosa CCARM 2095 strain assessed as bacterial growth inhibition in presence of ciprofloxacin by checkerboard assay; assay type: functional
[11] = test system: Pseudomonas aeruginosa; assay: Antibiofilm activity against multidrug-resistant Pseudomonas aeruginosa assessed as biofilm eradication; assay type: functional
[12] = test system: Pseudomonas aeruginosa; assay: Additive antibacterial activity against multidrug-resistant Pseudomonas aeruginosa CCARM 2095 strain assessed as Oxacillin MIC by checkerboard assay; assay type: functional
[13] = test system: Cell membrane; assay: Induction of cell membrane depolarization in Staphylococcus aureus assessed as increase in fluorescence intensity at 2 times MIC by DiSC3(5) dye based fluorescence assay
[14] = test system: Cell membrane; assay: Induction of outer membrane permeabilization in Escherichia coli KCTC 1682 assessed as increase in fluorescence intensity at 2 to 8 ug/ml by NPN staining based analysis; settings: dose 2-8 µg/ml
[15] = test system: Staphylococcus aureus; assay: Additive antibacterial activity against multidrug-resistant Staphylococcus aureus CCARM 3089 strain assessed as fractional inhibitory concentration index in presence of ciprofloxacin by checkerboard assay; assay type: functional
[16] = test system: Staphylococcus aureus; assay: Additive antibacterial activity against methicillin-resistant Staphylococcus aureus CCARM 3089 strain assessed as chloramphenicol MIC by checkerboard assay; assay type: functional
[17] = test system: Staphylococcus aureus; assay: Additive antibacterial activity against methicillin-resistant Staphylococcus aureus CCARM 3089 strain assessed as bacterial growth inhibition in presence of chloramphenicol by checkerboard assay; assay type: functional
[18] = test system: Pseudomonas aeruginosa; assay: Additive antibacterial activity against multidrug-resistant Pseudomonas aeruginosa CCARM 2095 strain assessed as fractional inhibitory concentration in presence of oxacillin by checkerboard assay; assay type: functional
[19] = test system: Cell membrane; assay: Induction of cell membrane depolarization in Staphylococcus aureus assessed as increase in fluorescence intensity at 2 times MIC by SYTOX green staining based analysis
[20] = test system: Pseudomonas aeruginosa; assay: Additive antibacterial activity against multidrug-resistant Pseudomonas aeruginosa CCARM 2095 strain assessed as fractional inhibitory concentration index in presence of chloramphenicol by checkerboard assay; assay type: functional
[21] = test system: Staphylococcus aureus; assay: Additive antibacterial activity against methicillin-resistant Staphylococcus aureus CCARM 3089 strain assessed as bacterial growth inhibition in presence of oxacillin by checkerboard assay; assay type: functional
[22] = test system: Pseudomonas aeruginosa; assay: Additive antibacterial activity against multidrug-resistant Pseudomonas aeruginosa CCARM 2095 strain assessed as fractional inhibitory concentration index in presence of oxacillin by checkerboard assay; assay type: functional
[23] = test system: Staphylococcus aureus; assay: Antibacterial activity against methicillin-resistant Staphylococcus aureus CCARM 3089 strain assessed as bacterial growth inhibition by checkerboard assay; assay type: functional
[24] = test system: Cell membrane; assay: Induction of inner membrane permeabilization in Escherichia coli ML-35 assessed as increase in […] at 2 times MIC by ONPG staining based analysis
[25] = test system: Staphylococcus aureus; assay: Additive antibacterial activity against methicillin-resistant Staphylococcus aureus CCARM 3089 strain assessed as bacterial growth inhibition in presence of ciprofloxacin by checkerboard assay; assay type: functional
[26] = test system: Pseudomonas aeruginosa; assay: Antibiofilm activity against multidrug-resistant Pseudomonas aeruginosa assessed as inhibition of biofilm formation; assay type: functional
[27] = test system: Pseudomonas aeruginosa; assay: Additive antibacterial activity against multidrug-resistant Pseudomonas aeruginosa CCARM 2095 strain assessed as chloramphenicol fractional inhibitory concentration by checkerboard assay; assay type: functional
[28] = test system: Lipopolysaccharide (LPS); assay: Displacement of BODIPY-TR-cadaverine from Escherichia coli O111:B4 lipopolysaccharide assessed as increase in fluorescence at 5 ug/ml by fluorescence based assay; settings: dose 5.0 µg/ml
[29] = test system: Pseudomonas aeruginosa; assay: Additive antibacterial activity against multidrug-resistant Pseudomonas aeruginosa CCARM 2095 strain assessed as bacterial growth inhibition in presence of oxacillin by checkerboard assay; assay type: functional
[30] = test system: Pseudomonas aeruginosa; assay: Additive antibacterial activity against multidrug-resistant Pseudomonas aeruginosa CCARM 2095 strain assessed as fractional inhibitory concentration in presence of chloramphenicol by checkerboard assay; assay type: functional
[31] = test system: Pseudomonas aeruginosa; assay: Additive antibacterial activity against multidrug-resistant Pseudomonas aeruginosa CCARM 2095 strain assessed as ciprofloxacin fractional inhibitory concentration by checkerboard assay; assay type: functional
[32] = test system: Pseudomonas aeruginosa; assay: Additive antibacterial activity against multidrug-resistant Pseudomonas aeruginosa CCARM 2095 strain assessed as bacterial growth inhibition by checkerboard assay; assay type: functional
[33] = test system: Staphylococcus aureus; assay: Additive antibacterial activity against multidrug-resistant Staphylococcus aureus CCARM 3089 strain assessed as fractional inhibitory concentration index in presence of chloramphenicol by checkerboard assay; assay type: functional
[34] = test system: Staphylococcus aureus; assay: Additive antibacterial activity against methicillin-resistant Staphylococcus aureus CCARM 3089 strain assessed as oxacillin MIC by checkerboard assay; assay type: functional
[35] = test system: Lipopolysaccharide (LPS); assay: Binding affinity to Escherichia coli O111:B4 lipopolysaccharide assessed as suppression of FTIC labeled LPS binding to mouse RAW264.7 cells at 20 ug/ml pretreated LPS with cells for 1 hr followed by compound addition measured after 1 hr by flow cytometer assay (reference value: 48.12%); assay type: cell-based; settings: dose 20.0 µg/ml

CC[C@H](C)[C@H](NC(=O)[C@H](CCCCN)NC(=O)[C@H](CCC(=O)O)NC(=O)[C@H](CCCCN)NC(=O)[C@H](CO)NC(=O)[C@H](CCCCN)NC(=O)[C@H](CCCNC(=N)N)NC(=O)[C@H](Cc1ccccc1)NC(=O)[C@H](Cc1ccccc1)NC(=O)[C@H](CC(=O)O)NC(=O)CNC(=O)[C@H](CC(C)C)NC(=O)[C@@H](N)CC(C)C)C(=O)NCC(=O)N[C@@H](CCCCN)C(=O)N[C@@H](CCC(=O)O)C(=O)N[C@@H](Cc1ccccc1)C(=O)N[C@@H](CCCCN)C(=O)N[C@@H](CCCNC(=N)N)C(=O)N[C@H](C(=O)N[C@H](C(=O)N[C@@H](CCC(N)=O)C(=O)N[C@@H](CCCNC(=N)N)C(=O)N[C@H](C(=O)N[C@@H](CCCCN)C(=O)N[C@@H](CC(=O)O)C(=O)N[C@@H](Cc1ccccc1)C(=O)N[C@@H](CC(C)C)C(=O)N[C@@H](CCCNC(=N)N)C(=O)N[C@@H](CC(N)=O)C(=O)N[C@@H](CC(C)C)C(=O)N[C@H](C(=O)N1CCC[C@H]1C(=O)N[C@@H](CCCNC(=N)N)C(=O)N[C@H](C(=O)N[C@@H](CCC(=O)O)C(=O)N[C@@H](CO)C(=O)O)[C@@H](C)O)C(C)C)[C@@H](C)CC)C(C)C)[C@@H](C)CC [CATHELICIDIN]
FIC [1]: 0.5 | Activity [2]: inactive | MIC [3]: 16 µg/mL | MIC [4]: 512 µg/mL | fractional inhibitory concentration index (FICI) [5]: 0.75 | MIC [6]: 128 µg/mL | Flu intensity [7]: 10.4% | MIC [8]: 256 µg/mL | FIC [9]: 0.5 | MIC [10]: 16 µg/mL | MBEC50 [11]: 14.2 µM | MBEC90 [11]: 28.5 µM | MIC [12]: 512 µg/mL | Activity [13]: Active | Activity [14]: Active | fractional inhibitory concentration index (FICI) [15]: 0.75 | MIC [16]: 64 µg/mL | MIC [17]: 32 µg/mL | FIC [18]: 0.25 | Activity [19]: Active | fractional inhibitory concentration index (FICI) [20]: 1 | MIC [21]: 32 µg/mL | fractional inhibitory concentration index (FICI) [22]: 0.75 | MIC [23]: 64 µg/mL | Activity [24]: Active | MIC [25]: 32 µg/mL | MBEC50 [26]: 14.2 µM | MBEC90 [26]: 28.5 µM | MBIC [26]: >7 µM | MBIC50 [26]: 3.6 µM | FIC [27]: 0.5 | Activity [28]: inactive | MIC [29]: 8 µg/mL | FIC [30]: 0.5 | FIC [31]: 0.25 | MIC [32]: 32 µg/mL | fractional inhibitory concentration index (FICI) [33]: 0.675 | MIC [34]: 256 µg/mL | Flu intensity [35]: 18.3%
